Molecules are shown by their SMILES. pIC50: −log10 of the molar value. Counter-ions that a name gives are not always drawn.

One assay deals with PMS1. The assay can be described thus: Mini-gene reporter assay-PMS1. The settings on record: Homo sapiens, HEK293, PMS1 mini-gene firefly luciferase reporter transiently transfected into HEK293 cells; read-out: PMS1 IC50. It counts as cell-based. From the text: Biological Activity of the Compounds of the Present Disclosure Mini-gene reporter assay-PMS1
Mini-gene reporter constructs for each target site can be constructed by first PCR amplifying the region-of-interest including the sequence of the alternatively skipped, sequences of the immediate upstream and downstream introns, and sequences of the immediate upstream and downstream exons. Then the 3′end of the amplified sequence can be ligated to a firefly luciferase reporter gene and cloned into the pcDNA3.1 vector backbone. The final reporter construct can be transiently transfected into HEK293 cells using Lipofectamine 3000 transfection reagents. Compounds that can induce the inclusion of the skipped exon in the reporter construct would increase the reporter firefly luciferase activity.
Test compounds may be diluted in duplicates and dispensed into an assay plate. Transient mini-gene reporter cell line stock is resuspended and dispensed into the assay plate. Assay plates are then centrifuged and incubated. A luciferase reagent (e.g. ONE-Glo firefly luciferase reagent from Promega®) may be added to the assay plate and the luminescence (RLU) signals recorded. PMS1 EC50 values may be determined by curve fitting in Levenberg-Marquardt algorithm.
On the technique in general: Reporter assays use an easily measured gene product as a stand-in for the process of interest.
As to `COc1nc(N2CC3CNCC3C2)ncc1C(=O)Nc1cn2cc(C)nc2c(C)n1` (stereo not drawn) [Compound 22, N-{2,8-dimethylimidazo[1,2-a]pyrazin-6-yl}-4-methoxy-2-{octahydropyrrolo[3,4-c]pyrrol-2-yl}pyrimidine-5-carboxamide], the pIC50 was greater than 6.30. Same read-out and setting: for `CCOc1nc(N2CCC3(CC2)COC(C)CN3)ncc1C(=O)Nc1cn2cc(C)nc2c(C)n1` (stereo not drawn) [Compound 61] the value was less than 5.52. On to `CCOc1nc(N2C[C@]3(C)CNC[C@]3(C)C2)ncc1C(=O)Nc1cc(F)c2nc(C)cn2c1` [Compound 148], for which the pIC50 was 5.52 to 6.00. On the same count and under the same terms, next, `CCOc1nc(N2CC[C@@H]3NCC[C@@H]3C2)ncc1C(=O)Nc1cn2cc(C)nc2c(C)n1` (racemic) [Compound 90]: 5.52 to 6.00; `CCOc1nc(N2CC3CNCCC32)ncc1C(=O)Nc1cn2cc(C)nc2c(C)n1` (stereo not drawn) [Compound 77]: greater than 6.30; `CCOc1nc(N2CC(N3CCNCC3)C2)ncc1C(=O)Nc1cc(F)c2nc(C)cn2c1` [Compound 218]: less than 5.52.

As to `CCOc1nc(N2CC3(CCCNC3)C2)ncc1C(=O)Nc1cn2cc(C)nc2c(C)n1` [Compound 87], the pIC50 was 5.52 to 6.00.

Take `CCOc1nc(N(CC)C2CCNCC2)ncc1C(=O)Nc1cn2cc(C)nc2cn1` [Compound 267, 4-ethoxy-2-(ethyl(piperidin-4-yl)amino)-N-(2-methylimidazo[1,2-a]pyrazin-6-yl)pyrimidine-5-carboxamide formic acid]: the pIC50 was 6.00 to 6.30.

As for `CCOc1nc(N2CCC3(CC2)CNC3)ncc1C(=O)Nc1cc(F)c2nc(C)cn2c1` [Compound 235], the pIC50 was greater than 6.30.

As to `CCOc1nc(N2CC3CCC2C2CNCC32)ncc1C(=O)Nc1cc(F)c2nc(C)cn2c1` (stereo not drawn) [Compound 128], the pIC50 was greater than 6.30.

Take `CCOc1nc(N2CCC3(CC2)COCCN3)ncc1C(=O)Nc1cn2cc(C)nc2c(C)n1` [Compound 94]: the negative logarithm of the IC50 (pIC50) is less than 5.52. On the same count and under the same terms, for `CCOc1nc(N2CCNCC2C)ncc1C(=O)Nc1cn2cc(C)nc2c(C)n1` (stereo not drawn) [Compound 42] the value was 6.00 to 6.30.

On to `CCOc1nc(N2CC[C@H](N(C)C)C2)ncc1C(=O)Nc1cc(F)c2nc(C)cn2c1` [Compound 294, (S)-2-(3-(dimethylamino)pyrrolidin-1-yl)-4-ethoxy-N-(8-fluoro-2-methylimidazo[1,2-a]pyridin-6-yl)pyrimidine-5-carboxamide formate], for which the pIC50 was less than 5.52. On the same count and under the same terms, for `CCOc1nc(N(C)CC2CCCNC2)ncc1C(=O)Nc1cc(F)c2nc(C)cn2c1` (stereo not drawn) [Compound 217] the value was 5.52 to 6.00. `CCOc1nc(N2CCCC(NC)C2)ncc1C(=O)Nc1cc(F)c2nc(C)cn2c1` (stereo not drawn) [Compound 232]: the pIC50 was 6.00 to 6.30. Still for that read-out and setting: next, `CCNC1CCN(c2ncc(C(=O)Nc3cn4cc(C)nc4c(C)n3)c(OCC)n2)C1` (stereo not drawn) [Compound 70]: greater than 6.30; `CCOc1nc(N2C[C@H]3CNCC[C@H]3C2)ncc1C(=O)Nc1cn2cc(C)nc2c(C)n1` (racemic) [Compound 105]: greater than 6.30. On the same count and under the same terms, for `CCOc1nc(N2CCCNC(CO)C2)ncc1C(=O)Nc1cc(F)c2nc(C)cn2c1` (stereo not drawn) [Compound 121] the value was 5.52 to 6.00; for `CCOc1nc(N2CCN[C@@H](C)C2)ncc1C(=O)Nc1cc(F)c2nn(C)cc2c1` [Compound 279, (S)-4-ethoxy-N-(7-fluoro-2-methyl-2H-indazol-5-yl)-2-(3-methylpiperazin-1-yl)pyrimidine-5-carboxamide formate], greater than 6.30; for `CCOc1nc(N2CCNCC2)ncc1C(=O)Nc1cc(OC)c2nc(C)cn2c1` [Compound 27, 4-ethoxy-N-{8-methoxy-2-methylimidazo[1,2-a]pyridin-6-yl}-2-(piperazin-1-yl)pyrimidine-5-carboxamide], 6.00 to 6.30. In the case of `CCOc1nc(N2CCC(NC)C2)ncc1C(=O)Nc1ccc2nc(C)cn2n1` (stereo not drawn) [Compound 319], the pIC50 was less than 5.52.

For the compound `CCNC1CCN(c2ncc(C(=O)Nc3cc(F)c4nc(C)cn4c3)c(OCC)n2)C1` (stereo not drawn) [Compound 154], the pIC50 is greater than 6.30. Same read-out and setting: for `CCNC1CN(c2ncc(C(=O)Nc3cc(F)c4nc(C)cn4c3)c(OCC)n2)C1` [Compound 202] the value was 6.00 to 6.30. On to `CCOc1nc(N2CC[C@@H](N(C)C)C2)ncc1C(=O)Nc1cc(F)c2nc(C)cn2c1` [Compound 290, (R)-2-(3-(dimethylamino)pyrrolidin-1-yl)-4-ethoxy-N-(8-fluoro-2-methylimidazo[1,2-a]pyridin-6-yl)pyrimidine-5-carboxamide 4-methylbenzenesulfonate], for which the negative logarithm of the IC50 (pIC50) is 5.52 to 6.00. The same measure, in the same setting: for `CCOc1nc(N2CCC3(CCN3)CC2)ncc1C(=O)Nc1cn2cc(C)nc2c(C)n1` [Compound 64] the value was greater than 6.30; for `CCOc1nc(N2CCNC(C)C2C)ncc1C(=O)Nc1cn2cc(C)nc2c(C)n1` (stereo not drawn) [Compound 35], less than 5.52.

As for `CCOc1nc(N2CCC3(CCNCC3)CC2)ncc1C(=O)Nc1cc(F)c2nc(C)cn2c1` [Compound 207], the pIC50 was greater than 6.30. Still for that read-out and setting: for `CCOc1nc(N(CC)C2CCCNCC2)ncc1C(=O)Nc1cn2cc(C)nc2c(C)n1` (stereo not drawn) [Compound 249] the value was less than 5.52. The same measure, in the same setting: for `CCOc1nc(N2CCNC(CC(F)F)C2)ncc1C(=O)Nc1cc(F)c2nc(C)cn2c1` (stereo not drawn) [Compound 110] the value was 5.52 to 6.00; for `CCOc1nc(N2CCNC(C)(C)C2)ncc1C(=O)Nc1cc(F)c2nn(C)cc2c1` [Compound 265, 2-(3,3-dimethylpiperazin-1-yl)-4-ethoxy-N-(7-fluoro-2-methyl-2H-indazol-5-yl)pyrimidine-5-carboxamide], less than 5.52. In the case of `CCOc1nc(N2CC3CCNCC32)ncc1C(=O)Nc1cn2cc(C)nc2c(C)n1` (stereo not drawn) [Compound 48], the pIC50 was less than 5.52. The same measure, in the same setting: for `CCOc1nc(N2CCN[C@@H](C(C)C)C2)ncc1C(=O)Nc1cn2cc(C)nc2c(C)n1` [Compound 65] the value was 6.00 to 6.30. On to `CCOc1nc(N2CCC(NC)CC2)ncc1C(=O)Nc1cn2cc(C)nc2c(C)n1` [Compound 39], for which the pIC50 was greater than 6.30. With `CCOc1nc(N2CCC3(CCNC3)C2)ncc1C(=O)Nc1cc(F)c2nc(C)cn2c1` (stereo not drawn) [Compound 234], the pIC50 is greater than 6.30. Same read-out and setting: for `CCOc1nc(N2CCNC(C)C2C)ncc1C(=O)Nc1cc(F)c2nc(C)cn2c1` (stereo not drawn) [Compound 213] the value was greater than 6.30. Same read-out and setting: for `CCOc1nc(N2CC[C@@H](NC)C2)ncc1C(=O)Nc1cc(OC)c2nn(C)cc2c1` [Compound 295, (R)-4-ethoxy-N-(7-methoxy-2-methyl-2H-indazol-5-yl)-2-(3-(methylamino)pyrrolidin-1-yl)pyrimidine-5-carboxamide 4-methylbenzenesulfonate] the value was 6.00 to 6.30; for `CCOc1nc(N2CCNCC3(CC3)C2)ncc1C(=O)Nc1cc(F)c2nc(C)cn2c1` [Compound 116], greater than 6.30.

As for `CCOc1nc(N2CCC(N3CCNCC3)C2)ncc1C(=O)Nc1cc(F)c2nc(C)cn2c1` (stereo not drawn) [Compound 107], the pIC50 was 5.52 to 6.00.

Consider `CCOc1nc(N2CCNCC2)ncc1C(=O)Nc1cc2cn(C)nc2c(F)c1C` [Compound 307, 4-ethoxy-N-(7-fluoro-2,6-dimethyl-2H-indazol-5-yl)-2-(piperazin-1-yl)pyrimidine-5-carboxamide hydrochloride], for which the pIC50 was 5.52 to 6.00. On the same count and under the same terms, for `CCOc1nc(N2CCC(NC)C2)ncc1C(=O)Nc1cc(OC)c2nn(C)cc2c1` (stereo not drawn) [Compound 278, 4-ethoxy-N-(7-methoxy-2-methyl-2H-indazol-5-yl)-2-(3-(methylamino)pyrrolidin-1-yl)pyrimidine-5-carboxamide formate] the value was greater than 6.30. Same read-out and setting: for `CCOc1nc(N2CCNCC2C(F)F)ncc1C(=O)Nc1cc(F)c2nc(C)cn2c1` (stereo not drawn) [Compound 112] the value was 5.52 to 6.00; for `CCOc1nc(N2CC[C@@H](N(C)C)C2)ncc1C(=O)Nc1cc(F)c2nn(C)cc2c1` [Compound 292, (R)-2-(3-(dimethylamino)pyrrolidin-1-yl)-4-ethoxy-N-(7-fluoro-2-methyl-2H-indazol-5-yl)pyrimidine-5-carboxamide formate], 5.52 to 6.00. Still for that read-out and setting: for `CCOc1nc(N2CC(C3CNC3)C2)ncc1C(=O)Nc1cc(F)c2nc(C)cn2c1` [Compound 143] the value was greater than 6.30; for `CCOc1nc(N2CC(C3CNC3)C2)ncc1C(=O)Nc1cn2cc(C)nc2c(C)n1` [Compound 52], less than 5.52. As for `CC(C)COc1nc(N2CCNCC2)ncc1C(=O)Nc1cc(F)c2nn(C)cc2c1` [Compound 306, N-(7-fluoro-2-methyl-2H-indazol-5-yl)-4-isobutoxy-2-(piperazin-1-yl)pyrimidine-5-carboxamide formate], the pIC50 is 5.52 to 6.00.

The assay is the same for the next values; noted with them: Homo sapiens; at 5 μM; PMS1 mini-gene firefly luciferase reporter in HEK293 cells; read-out: PMS1% Effect at 5 μM.
In the case of `CCOc1nc(N2CCC(C3(O)CCNCC3)CC2)ncc1C(=O)Nc1cn2cc(C)nc2c(C)n1` [Compound 66], the activation at 5 µM is less than 50%.

As to `CCOc1nc(N2CC3(CCN3)C2)ncc1C(=O)Nc1cn2cc(C)nc2c(C)n1` [Compound 24], the activation at 5 µM lay within 50 to 75%. `CCOc1nc(N2CCC(C3(O)CNC3)CC2)ncc1C(=O)Nc1cn2cc(C)nc2c(C)n1` [Compound 75]: the activation at 5 µM was less than 50%. Same read-out and setting: for `CCOc1nc(N2CC[C@H](NC)C2)ncc1C(=O)Nc1ccn2nc(C)cc2c1` [Compound 314, 4-ethoxy-2-[(3S)-3-(methylamino)pyrrolidin-1-yl]-N-2-methylpyrazolo[1,5-a]-pyridin-5-ylpyrimidine-5-carboxamide] the value was greater than 75%; for `CCOc1nc(N2CCCC2C(=O)N2CCNCC2)ncc1C(=O)Nc1cc(F)c2nc(C)cn2c1` (stereo not drawn) [Compound 196], less than 50%. The same measure, in the same setting: for `CCOc1nc(N2CCCC(OC3CNC3)C2)ncc1C(=O)Nc1cc(F)c2nc(C)cn2c1` (stereo not drawn) [Compound 153] the value was 50 to 75%.

What is called pIC50 is the negative decadic logarithm of the IC50, by convention in mol/L.

These data come from patent US20250122192A1, “5-PYRIMIDINECARBOXAMIDE DERIVATIVES AND METHODS OF USING THE SAME” (Rgenta Therapeutics, Inc., priority 2021, published 2025).
